# Reference: patent publication US20030124127A1, “Targeting leukemia cells” (priority 2001, published 2003)
# Experiments:
# [1] = cited from earlier work
# [2] = system: normal and malignant lymphocytes; conditions: clinical studies; cited from earlier work
# NB4 cells [3] = assay: RT-PCR analysis of CD52 mRNA in NB4 cells; format: cell-based, human; conditions: ATRA 12-96 hr, not detectable in untreated cells
# Method: (§1) Reverse transcriptase (RT)-PCR. NB4 cells were cultured and treated with or without ATRA as described above. Some assays were performed using other cell lines including the erythroblastic leukemia cell line K562, the monocytic leukemia cell line U937 and the HL-60 cell line, a human myeloblastic leukemia cell line lacking the t(15; 17) translocation. Total RNA was isolated from the cells and used for CD52 cDNA synthesis by RT-PCR. The cDNA was synthesized in a 20 μl reaction mixture containing 5 μg RNA, 5 mM dNTP, 0.1 μg random primers and 200 U reverse transcriptase, and the mixture was incubated at 42° C. for 1 hr. The cDNA was amplified for 30 cycles with denaturation at 94° C. for 30 seconds, annealing at 56° C. for 30 seconds and extension at 72° C. for 1 min. Amplified products were sequenced and confirmed by comparison with sequence data from GenBank.
# NB4 cells [4] = assay: cDNA microarray analysis of ATRA-induced NB4 cell gene expression; conditions: 96 hr
# HL-60 cells = assay: Cell specificity of CD52 induction by ATRA, flow cytometry, HL-60; format: cell-based, human; conditions: HL-60, lacking t(15;17), ATRA 96 hours
# Method: (§2) Leukemia cell lines. NB4 cells were a gift (Dr. James R. Downing, St. Jude Children's Research Hospital) and other leukemia cell lines (K562, U937 and HL-60) were purchased from ATCC (Manassas, Va.). All leukemia cell lines were cultured in RPMI 1640 medium plus 10% fetal calf serum. Cells (1×10^6) were treated with or without 1 μM ATRA (Sigma, St. Louis, Mo.) for 12, 24, 48, 72, and 96 hours at 37° C. in a 5% CO2 incubator in darkness. All experiments were repeated three times.
# as §1, with “The cDNA was amplified for 30 cycles with denaturation at 94° C. for 30 seconds, annealing at 56° C. for 30 seconds and extension at 72° C. for 1 min. Amplified products were sequenced and confirmed by comparison with sequence data from GenBank.” left out
# Flow cytometry. APL cells were treated as described above with 1 μM of ATRA for 24, 48, 72, and 96 hrs, and cell differentiation was evaluated by changes in cell morphology, CD11B and CD18 expression, and the NBT reduction test. […] Samples were analyzed in triplicate. […]
# newly diagnosed APL = conditions: ATRA therapy; cited from earlier work
# NB4 cells [5] = assay: Flow cytometry of CD52, CD11B, CD18 surface expression in NB4 cells
# NB4 cells [6] = assay: ATRA-induced NB4 cell differentiation (morphology, CD11B/CD16 flow cytometry, NBT reduction test); format: cell-based, human; conditions: 1 μM ATRA
# Method: as §2
# (§3) Assessment of cell differentiation. ATRA-induced NB4 cell differentiation was evaluated by morphological assessment, by flow cytometry for expression of cell surface antigens related to granulocytic differentiation and maturation such as CD11B/CD18-integrins (Gahmberg C G, Curr. Opin. Cell Biol. 9: 643-650, 1997) and by the nitroblue tetrazolium (NBT) reduction test, which measures myelocyte maturity (Idres N et al., Cancer Res. 61: 700-705, 2001). For cell cycle analysis, the cells were stained with propidium iodide (PI) and analyzed by a fluorescence-activated cell sorting analysis.
# [7] = system: erythroblastic leukemia line K562; assay: Cell specificity of CD52 induction by ATRA, flow cytometry, K562; format: cell-based; conditions: K562, ATRA 96 hours
# Method: as §2
# (§4) Flow cytometry. APL cells were treated as described above with 1 μM of ATRA for 24, 48, 72, and 96 hrs, and cell differentiation was evaluated by changes in cell morphology, CD11B and CD18 expression, and the NBT reduction test. ATRA treated cells (1×10^6) were stained with CD18-FITC (Becton Dickinson Biosciences San Jose, Calif.), CD11B-PE, and CD52-FITC antibodies (both from Serotec) following manufacturer's instructions. […] Samples were analyzed in triplicate.
# (§5) Cell specificity of CD52 expression induction by ATRA. To determine the cell specificity of ATRA-induced CD52 expression, other leukemia cell lines were tested and compared with NB4 under assay conditions used for the NB4 cells.
# NB4 cells [8] = assay: Western blot analysis of CD52 protein in NB4 cells; format: cell-based, human; conditions: ATRA-treated vs untreated
# Method: Western blot analysis. Cell lysates from control and ATRA-treated NB4 cells were separated on a 4%-20% gradient SDS-polyacrylamide gel and then transferred to PVDF membrane (Millipore, Bedford, Mass.) using a semidry electroblot chamber. The membrane was blocked overnight with 5% dry-milk in Tris-buffered saline and then incubated with anti-CD52 antibody (Serotec, Inc., Raleigh, N.C.) for 1 hour at room temperature. The binding of primary antibody was detected by using peroxidase-coupled second antibody (Sigma). Bound peroxidase was detected by the Super Signal Substrate (Pierce, Rockford, Ill.).
# NB4 cells [9] = assay: Cell cycle analysis of ATRA-treated NB4 cells (propidium iodide, flow cytometry); format: cell-based, human; conditions: 1 μM ATRA, 12-96 hrs, PI staining
# Method: as §2, §3
# [10] = system: monocytic leukemia cell line U937; assay: Cell specificity of CD52 induction by ATRA, flow cytometry, U937; format: cell-based; conditions: U937, ATRA 96 hours
# Method: as §2, §4, §5
molecule,measurement,setting,value
CC1=C(/C=C/C(C)=C/C=C/C(C)=C/CO)C(C)(C)CCC1 [retinol],"solubility in ethanol, methanol, ether, fats, and oil",[1],soluble
same,solubility in water or aqueous salt solutions,[1],practically insoluble
CAMPATH-1H: A humanized anti-CD52 monoclonal antibody,depletion of normal and malignant lymphocytes in vivo,[2],extremely effective
"CC1=C(/C=C/C(C)=C/C=C/C(C)=C/C(=O)O)C(C)(C)CCC1 [ATRA, all-trans-retinoic acid]",expression of CD52 mRNA,NB4 cells [3],rapidly induced
same,"CD52 mRNA expression, fold over control","NB4 cells [4]; 1 μM ATRA, peak",6.49 fold
same,"expression of gene gf206—339D4, fold of control",NB4 cells [4]; ATRA,more than 58 fold
same,CD52 up-regulation,HL-60 cells,not up-regulated
same,complete remission of patients,newly diagnosed APL,up to 85%
same,maximal CD52 surface expression,"NB4 cells [5]; 1 μM ATRA, 48 to 96 hr",~90%
same,cell population co-expressing CD11B and CD52,NB4 cells [5]; 96 hr of ATRA exposure,approximately 80%
same,cells expressing only CD11B,NB4 cells [5]; 96 hr of ATRA exposure,approximately 10%
same,cells expressing only CD52,NB4 cells [5]; 96 hr of ATRA exposure,approximately 5%
same,up-regulation of both CD11B and CD52,"NB4 cells [5]; NB4, ATRA 96 hours",robust up-regulation
same,maximal differentiation (CD11B+ and NBT+ cells),NB4 cells [6]; 24 to 96 hrs and later,85%
same,morphologic change in NB4 cells,NB4 cells [6]; end of 24 hrs,No obvious morphologic change
same,CD16 expression,NB4 cells [6]; flow cytometry,failed to express CD16
same,CD11B expression,[7],did not induce
same,CD52 expression,[7],did not induce
same,CD52 protein bands of 21-28 kDa,NB4 cells [8],only detected in ATRA-treated cells
same,S-phase cells,NB4 cells [9],decrease of S-phase cells
same,expression of CD11B,[10],slightly increased
same,expression of CD52,[10],did not affect
